Patent EP4310070A1, “USE OF TRANS AMANTADINE DERIVATIVE OR SALT THEREOF” (Chengdu Shibeikang Biomedical Technology Co., Ltd., priority 2021, dated 2022)
Where a name gives a salt, the structure may show the parent alone. Marks after values point to notes of the source that are not given here.

Assays:
[1] = tested on: expectoration amount by rat capillary tube expectoration; assay: rat capillary sputum excretion test; type: in vivo, SD rats; details: length of liquid in capillary tube within 90 minutes; 15 mg/kg in terms of free base via tail vein, 30 minutes after administration; n=10; vehicle control 22.7±4.41; hydrochloride, 15 mg/kg
Method: 180-220g SD rats of both sexes were used and divided into random groups, with 10 rats in each group, namely a vehicle control group, a Formula I compound group (15 mg/kg, in terms of free base), a Formula V compound group (15 mg/kg, in terms of free base), a Comparative Example group (15 mg/kg, in terms of free base) and ambroxol hydrochloride (15 mg/kg, in terms of free base). The rats were fasted and restrained from water for 12 hours before testing the amount of sputum excretion, and administered the respective medicaments via the tail vein (dissolved in normal saline by adjusting pH or directly dissolved in normal saline). 30 minutes after the administration, they were anesthetized by intraperitoneally injecting 1g/kg of a urethane solution in saline, fixed in supine position, and the trachea was separated after cutting through neck skin. A small hole was pierced by using a syringe needle between the two cartilage rings on the lower edge of the thyroid cartilage, and a capillary tube (with an inner diameter of 0.8mm, and a length of 10cm) was inserted centripetally into the trachea. Sputum was collected while adjusting the angle between the capillary tube and the trachea, and the total number of the length of liquids in the capillary tube (mm) was used to evaluate the expectoration effect. The amount of expectoration of the rats within 90 minutes was recorded. Here, the medicament used for the Comparative Example group was the 4-[(2-amino-3,5-dibromobenzyl)amino]adamantan-1-ol hydrochloride (racemic) prepared in Comparative Example 1. Table 4. Results of the effect on the expectoration amount by rat capillary tube expectoration

[2] = tested on: ammonia-induced coughing response in mice; assay: cough response of mice induced by ammonia water; type: in vivo, KM mice
Method: 50 KM mice, weighing 18-22g, of both sexes were used and randomly divided into 5 groups, a model control group, a Formula I compound group (15 mg/kg, in terms of free base), a Formula V compound group (15 mg/kg, in terms of free base), a Comparative Example group (15 mg/kg, in terms of free base), and an ambroxol hydrochloride group (15 mg/kg, in terms of free base), 10 animals in each group, and were administered intravenously (dissolved in normal saline by adjusting pH or directly dissolved in normal saline). 30 minutes after the administration, the mice were put in an inverted beaker with a volume of 500ml and a cotton ball inside. Timing was started once 0.2ml of concentrated ammonia/mouse was added onto the cotton ball. The number of coughs of each animal within 3 minutes was observed and recorded. Here, the medicament used for the Comparative Example group was the 4-[(2-amino-3,5-dibromobenzyl)amino]adamantan-1-ol hydrochloride (racemic) prepared in Comparative Example 1. Table 3. Effect on ammonia-induced coughing response in mice (x ± s, n=10)

[3] = tested on: acute lung injury in mice induced by oleic acid; assay: acute lung injury test in mouse (oleic acid-induced, histological grading of lung pathology); type: in vivo, KM mice
Method: KM mice, weighing 18-22g, with all 66 being males, were used and randomly grouped into a normal control group, a model control group, a Formula I compound group (40 mg/kg, in terms of free base), a Formula V compound group (40 mg/kg, in terms of free base), a Comparative Example group (40 mg/kg, in terms of free base), and an ambroxol hydrochloride group (40 mg/kg, in terms of free base), 11 animals in each group, and each group was administered intravenously (dissolved in normal saline by adjusting pH or directly dissolved in normal saline) once a day for 4 times, while the model control group and the normal control group were given an equivalent amount of normal saline. 30 minutes after the last administration, except for the normal control group, all other mice were administered 300 mg/kg oleic acid intravenously (prepared into the desired concentration with sterile saline containing 0.1% […] immediately before use), and the vehicle control group was given an equivalent volume of 0.1% BSA saline. The mice were sacrificed 4 hours after the last administration, and the right lobes of the lungs were removed and fixed in a 10% formaldehyde solution. After dehydration, embedding in paraffin, dissection, and staining with HE, they were observed under a microscope for pathological changes of the lung tissues. Here, the medicament used for the Comparative Example group was the 4-[(2-amino-3,5-dibromobenzyl)amino]adamantan-1-ol hydrochloride (racemic) prepared in Comparative Example 1. Table 1. Criteria for histological grading of lung injury
The above indicators are multiplied by different weighting numbers depending on the significance of the pathology (alveolar wall thickening × 1, inflammatory cell infiltration × 1, lung tissue necrosis × 3), and finally added up to obtain an overall lung pathology score. Table 2. Test results of lung pathologies of each group

[4] = tested on: tracheal phenol red secretion in mice; assay: phenol red expectoration test in mice; type: in vivo; details: colorimetric measurement at 546nm; 30 mg/kg in terms of free base via tail vein 2 times in a row; x ± s, n=12; control 0.095±0.022; hydrochloride
Method: Experimental method: 60 mice of both sexes were used and randomly divided into a control (normal saline) group, a Formula I compound group (30 mg/kg, in terms of free base), a Formula V compound group (30 mg/kg, in terms of free base), a Comparative Example group (30 mg/kg, in terms of free base) and ambroxol hydrochloride (30 mg/kg, in terms of free base), 12 rats in each group; the respective medicaments were administered via the tail vein (dissolved in normal saline by adjusting pH or directly dissolved in normal saline) 2 times in a row. 15 minutes after the last administration to the mice, a 5% phenol red solution in normal saline (0.5g/kg) was subcutaneously injected. After 30 minutes, the mice were sacrificed and a section of the trachea was cut from below the thyroid cartilage to the trachea branch. The section was placed in a test tube containing 1 mL of normal saline, shaken and soaked for 30 minutes, and then centrifuged for 10 minutes (3000 r/min). The supernatant was transferred to another test tube, 0.1 mL of 1M NaOH solution was added, and shaken uniformly for a colorimetric measurement at 546nm. The effects of each group on the tracheal phenol red secretion in mice were statistically compared, and the experimental results obtained are shown in Table 5 below. Here, the medicament used for the Comparative Example group was the 4-[(2-amino-3,5-dibromobenzyl)amino]adamantan-1-ol hydrochloride (racemic) prepared in Comparative Example 1. Table 5. Effects on tracheal phenol red secretion in mice (x ± s)

[5] = number of mice (11 per group) at score 3 (Moderate), 40 mg/kg in terms of free base, intravenously once a day for 4 times, oleic acid 300 mg/kg i.v.
[6] = number of mice (11 per group) at score 4 (Severe), 40 mg/kg in terms of free base, intravenously once a day for 4 times, oleic acid 300 mg/kg i.v.

Structure (SMILES): Nc1c(Br)cc(Br)cc1CN[C@@H]1[C@@H]2C[C@@H]3C[C@H]1C[C@@](O)(C3)C2 [Compound of Formula V, trans-4-[(2-amino-3,5-dibromobenzyl)amino]adamantan-1-ol hydrochloride]
- Expectoration amount in 90min (mm) [1]: 45.1±5.39 mm
- reduction of the number of coughs ([2]; compared with the model control group (P<0.05 or P<0.01), 15 mg/kg free base i.v.): significantly reduce the number of coughs
- Number of coughs (times) ([2]; within 3 minutes after concentrated ammonia, 15 mg/kg in terms of free base i.v., 30 minutes after administration, x ± s, n=10, model control 41.7±8.76, hydrochloride, 15 mg/kg): 19.5±6.50 times
- Overall lung pathology score ([3]; group sum, weighted (alveolar wall thickening x 1, inflammatory cell infiltration x 1, lung tissue necrosis x 3), 40 mg/kg free base i.v. once a day for 4 times, model control 81, normal control 21, hydrochloride, 40 mg/kg): 24^**▲
- Alveolar wall thickening Level 0 ([3]; number of mice (11 per group) at score 0 (No pathological change), 40 mg/kg in terms of free base, intravenously once a day for 4 times, oleic acid 300 mg/kg i.v.): 1
- Inflammatory cell infiltration Level 0 ([3]; number of mice (11 per group) at score 0 (No pathological change), 40 mg/kg in terms of free base, intravenously once a day for 4 times, oleic acid 300 mg/kg i.v., hydrochloride): 2
- Lung tissue necrosis Level 1 ([3]; number of mice (11 per group) at score 1 (Occasional), 40 mg/kg in terms of free base, intravenously once a day for 4 times, oleic acid 300 mg/kg i.v.): 0
- Lung tissue necrosis Level 2 ([3]; number of mice (11 per group) at score 2 (Mild), 40 mg/kg in terms of free base, intravenously once a day for 4 times, oleic acid 300 mg/kg i.v.): 0
- Inflammatory cell infiltration Level 2 ([3]; number of mice (11 per group) at score 2 (Mild), 40 mg/kg in terms of free base, intravenously once a day for 4 times, oleic acid 300 mg/kg i.v., hydrochloride): 2
- Inflammatory cell infiltration Level 3 [3, 5]: 0
- Lung tissue necrosis Level 3 [3, 5]: 0
- Alveolar wall thickening Level 3 ([3]; number of mice (11 per group) at score 3 (Moderate), 40 mg/kg in terms of free base, intravenously once a day for 4 times, oleic acid 300 mg/kg i.v., hydrochloride): 0
- Alveolar wall thickening Level 4 [3, 6]: 0
- Inflammatory cell infiltration Level 4 [3, 6]: 0
- Lung tissue necrosis Level 4 [3, 6]: 0
- Phenol red secretion (OD number) [4]: 0.278±0.054 OD number
